Measurements from ChEMBL document CHEMBL1127553, “Derivatives of a novel cyclopeptolide. 2. Synthesis, activity against multidrug resistance in CHO and KB cells in vitro, and structure-activity relationships” (1994).
Non-standard residues stand in square brackets, D forms with d. Residues, ends and D or L forms follow the SMILES beside them. *: point of attachment. NMeI = CC[C@H](C)[C@H](NC)C(=O)O; NMeD = CN[C@@H](CC(=O)O)C(=O)O; NMeV = CN[C@H](C(=O)O)C(C)C; Pip = O=C(O)[C@@H]1CCCCN1; Lac = C[C@H](O)C(=O)O; OtBu = CC(C)(C)O*

Key:
CHO [1] = assay: The sensitizing capacity for colchicine treatment of multi drug resistance (MDR) CHO cell at concentration 1.0(mg/L).; format: functional, Cricetulus griseus
CHO [2] = assay: Sensitization of colchicine treated parental (PAR)CHO cells, measured at concentration 0.1(mg/L); format: functional, Cricetulus griseus
CHO [3] = assay: The sensitizing capacity for colchicine treatment of multi drug resistance(MDR) in CHO cell at concentration 0.1(mg/L).; format: functional, Cricetulus griseus
CHO [4] = assay: The sensitizing capacity for colchicine treatment of parental (PAR)CHO cells at concentration 1.0 (mg/L); format: functional, Cricetulus griseus
KB [5] = assay: The sensitizing capacity of compound for colchicine treatment of multi drug resistance in KB cell was measured at concentration 3.0 (mg/L); format: functional, Homo sapiens
KB [6] = assay: The sensitizing capacity of compound for colchicine treatment of multi drug resistance in KB cell was measured at concentration 1.0(mg/L); format: functional, Homo sapiens
CHO [7] = assay: The sensitizing capacity of compound for colchicine treatment of parental (PAR)CHO cells was measured at concentration 0.1 (mg/L); format: functional, Cricetulus griseus
KB (human) = assay: The sensitizing capacity of compound for colchicine treatment of multi drug resistance in KB cell was measured at concentration 1.0(mg/L)

Row | Compound | Activity (CHO [1]) | Activity (CHO [2]) | Activity (CHO [3]) | Activity (CHO [4]) | Activity (KB [5]) | Activity (KB [6]) | Activity (CHO [7]) | Activity (KB (human))
1 | CC[C@H](C)[C@H]1C(=O)NCC(=O)N(C)[C@@H](C(C)C)C(=O)N[C@@H](Cc2ccc(OC)cc2)C(=O)O[C@H](C)C(=O)N2CCCC[C@H]2C(=O)N(C)[C@@H](C(C)C)C(=O)N[C@@H](C(C)C)C(=O)N(C)[C@@H](CC(=O)OC)C(=O)N(C)[C@@H]([C@@H](C)CC)C(=O)N1C | 84 | 6.4 | 1.9 | 8.4 | – | – | – | –
2 | CC[C@@H](C)[C@H]1C(=O)NCC(=O)N(C)[C@@H](C(C)C)C(=O)N[C@@H](Cc2ccc(OC)cc2)C(=O)O[C@H](C)C(=O)N2CCCC[C@H]2C(=O)N(C)[C@@H](C(C)C)C(=O)N[C@@H](C(C)C)C(=O)N(C)[C@H](CC=O)C(=O)N(C)[C@@H]([C@@H](C)CC)C(=O)N1C | 28 | 4.6 | 1.1 | 8.2 | – | – | – | –
3 | CC[C@@H](C)[C@H]1C(=O)NCC(=O)N(C)[C@@H](C(C)C)C(=O)N[C@@H](Cc2ccc(OC)cc2)C(=O)O[C@@H](C)C(=O)N2CCCC[C@H]2C(=O)N(C)[C@@H](C(C)C)C(=O)N[C@@H](C(C)C)C(=O)N(C)[C@H](CC(=O)NCC(C)(C)C)C(=O)N(C)[C@@H]([C@@H](C)CC)C(=O)N1C | 358 | 8 | 95 | 13 | 82 | 2.2 | – | –
4 | CC[C@@H](C)[C@H]1C(=O)NCC(=O)N(C)[C@@H](C(C)C)C(=O)N[C@@H](Cc2ccc(OC)cc2)C(=O)O[C@@H](C)C(=O)N2CCCC[C@H]2C(=O)N(C)[C@@H](C(C)C)C(=O)N[C@@H](C(C)C)C(=O)N(C)[C@H](CC(=O)NCCC(C)C)C(=O)N(C)[C@@H]([C@@H](C)CC)C(=O)N1C | 273 | 7.7 | 83 | 8.6 | 54 | 1.5 | – | –
5 | CC[C@@H](C)[C@H]1C(=O)NCC(=O)N(C)[C@@H](C(C)C)C(=O)N[C@@H](Cc2ccc(OC)cc2)C(=O)O[C@@H](C)C(=O)N2CCCC[C@H]2C(=O)N(C)[C@@H](C(C)C)C(=O)N[C@@H](C(C)C)C(=O)N(C)[C@H](CC(=O)NC(C)(C)C)C(=O)N(C)[C@@H]([C@@H](C)CC)C(=O)N1C | 343 | 8.4 | 70 | 12 | 113 | 1.5 | – | –
6 | CC[C@H](C)[C@H]1C(=O)NCC(=O)N(C)[C@@H](C(C)C)C(=O)N[C@@H](Cc2ccc(OC)cc2)C(=O)O[C@@H](C)C(=O)N2CCCC[C@H]2C(=O)N(C)[C@@H](C(C)C)C(=O)N[C@@H](C(C)C)C(=O)N(C)[C@@H](CC(=O)OCC23CC4CC(CC(C4)C2)C3)C(=O)N(C)[C@@H]([C@@H](C)CC)C(=O)N1C | 78 | 6.9 | 1.4 | 7.4 | 3 | 1.3 | – | –
7 | CC[C@H](C)[C@H]1C(=O)NCC(=O)N(C)[C@@H](C(C)C)C(=O)N[C@@H](Cc2ccc(OC)cc2)C(=O)O[C@@H](C)C(=O)N2CCCC[C@H]2C(=O)N(C)[C@@H](C(C)C)C(=O)N[C@@H](C(C)C)C(=O)N(C)[C@@H](CC(=O)OCCC(C)(C)C)C(=O)N(C)[C@@H]([C@@H](C)CC)C(=O)N1C | 292 | 6.7 | 17 | 7.9 | 25 | 1.7 | – | –
8 | C=CCOc1ccc(C[C@@H]2NC(=O)[C@H](C(C)C)N(C)C(=O)CNC(=O)[C@H]([C@@H](C)CC)N(C)C(=O)[C@H]([C@@H](C)CC)N(C)C(=O)[C@H](CC(=O)OC(C)(C)C)N(C)C(=O)[C@H](C(C)C)NC(=O)[C@H](C(C)C)N(C)C(=O)[C@@H]3CCCCN3C(=O)[C@@H](C)OC2=O)cc1 | 9.6 | 5.8 | 1.5 | 11 | – | – | – | –
9 | CC[C@@H](C)[C@H]1C(=O)NCC(=O)N(C)[C@@H](C(C)C)C(=O)N[C@@H](Cc2ccc(OC)cc2)C(=O)O[C@H](C)C(=O)N2CCCC[C@H]2C(=O)N(C)[C@@H](C(C)C)C(=O)N[C@@H](C(C)C)C(=O)N(C)[C@H](CC(=O)O)C(=O)N(C)[C@@H]([C@@H](C)CC)C(=O)N1C | 1.8 | – | 1.1 | 7.6 | – | – | 2.2 | –
10 | CC[C@@H](C)[C@H]1C(=O)NCC(=O)N(C)[C@@H](C(C)C)C(=O)N[C@@H](Cc2ccc(OC)cc2)C(=O)O[C@H](C)C(=O)N2CCCC[C@H]2C(=O)N(C)[C@@H](C(C)C)C(=O)N[C@@H](C(C)C)C(=O)N(C)[C@H](CC(=O)N[C@H](C(=O)OC(C)(C)C)C(C)C)C(=O)N(C)[C@@H]([C@@H](C)CC)C(=O)N1C | 187 | 6 | 15 | 8.5 | 124 | 1.2 | – | –
11 | CC[C@@H](C)[C@H]1C(=O)NCC(=O)N(C)[C@@H](C(C)C)C(=O)N[C@@H](Cc2ccc(OC)cc2)C(=O)O[C@H](C)C(=O)N2CCCC[C@H]2C(=O)N(C)[C@@H](C(C)C)C(=O)N[C@@H](C(C)C)C(=O)N(C)[C@H](CC(=O)N2CCCCC2)C(=O)N(C)[C@@H]([C@@H](C)CC)C(=O)N1C | 137 | 7.1 | 3.2 | 10 | – | – | – | –
12 | CC[C@H](C)[C@H]1C(=O)NCC(=O)N(C)[C@@H](C(C)C)C(=O)N[C@@H](Cc2ccc(OC)cc2)C(=O)O[C@@H](C)C(=O)N2CCCC[C@H]2C(=O)N(C)[C@@H](C(C)C)C(=O)N[C@@H](C(C)C)C(=O)N(C)[C@@H](CC(=O)NC[Si](C)(C)C)C(=O)N(C)[C@@H]([C@@H](C)CC)C(=O)N1C | 336 | 7.4 | 81 | 11 | 123 | 1.3 | – | –
13 | CC[C@@H](C)[C@H]1C(=O)NCC(=O)N(C)[C@@H](C(C)C)C(=O)N[C@@H](Cc2ccc(OC)cc2)C(=O)O[C@@H](C)C(=O)N2CCCC[C@H]2C(=O)N(C)[C@@H](C(C)C)C(=O)N[C@@H](C(C)C)C(=O)N(C)[C@H](CC(=O)NC23CC4CC(CC(C4)C2)C3)C(=O)N(C)[C@@H]([C@@H](C)CC)C(=O)N1C | 290 | 7.7 | 92 | 8 | 772 | 3.7 | – | –
14 | CC[C@H](C)[C@H]1C(=O)NCC(=O)N(C)[C@@H](C(C)C)C(=O)N[C@@H](Cc2ccc(OC)cc2)C(=O)O[C@H](C)C(=O)N2CCCC[C@H]2C(=O)N(C)[C@@H](C(C)C)C(=O)N[C@@H](C(C)C)C(=O)N(C)[C@@H](CC(=O)NCCC(C)C)C(=O)N(C)[C@@H]([C@@H](C)CC)C(=O)N1C | 126 | 5.8 | 3.7 | 8.1 | 1.1 | 1 | – | –
15 | CC[C@H](C)[C@H]1C(=O)NCC(=O)N(C)[C@@H](C(C)C)C(=O)N[C@@H](Cc2ccc(O)cc2)C(=O)O[C@H](C)C(=O)N2CCCC[C@H]2C(=O)N(C)[C@@H](C(C)C)C(=O)N[C@@H](C(C)C)C(=O)N(C)[C@@H](CC(=O)OC(C)(C)C)C(=O)N(C)[C@@H]([C@@H](C)CC)C(=O)N1C | 172 | 6.5 | 2.5 | 14 | – | – | – | –
16 | CC[C@@H](C)[C@H]1C(=O)NCC(=O)N(C)[C@@H](C(C)C)C(=O)N[C@@H](Cc2ccc(OC)cc2)C(=O)O[C@H](C)C(=O)N2CCCC[C@H]2C(=O)N(C)[C@@H](C(C)C)C(=O)N[C@@H](C(C)C)C(=O)N(C)[C@H](CC(=O)NC23CC4CC(CC(C4)C2)C3)C(=O)N(C)[C@@H]([C@@H](C)CC)C(=O)N1C | 177 | 7.3 | 25 | 8.9 | 3.7 | – | – | 1.1
17 | CC[C@@H](C)[C@H]1C(=O)NCC(=O)N(C)[C@@H](C(C)C)C(=O)N[C@@H](Cc2ccc(OC)cc2)C(=O)O[C@H](C)C(=O)N2CCCC[C@H]2C(=O)N(C)[C@@H](C(C)C)C(=O)N[C@@H](C(C)C)C(=O)N(C)[C@H](CC(=O)NCC(C)(C)C)C(=O)N(C)[C@@H]([C@@H](C)CC)C(=O)N1C | 155 | 7.4 | 11 | 12 | 2.3 | 1.1 | – | –
18 | CC[C@@H](C)[C@H]1C(=O)NCC(=O)N(C)[C@@H](C(C)C)C(=O)N[C@@H](Cc2ccc(OC)cc2)C(=O)O[C@H](C)C(=O)N2CCCC[C@H]2C(=O)N(C)[C@@H](C(C)C)C(=O)N[C@@H](C(C)C)C(=O)N(C)[C@H](CC(=O)NC(C)(C)C)C(=O)N(C)[C@@H]([C@@H](C)CC)C(=O)N1C | 151 | 4.4 | 4.1 | 8.4 | – | – | – | –
19 | CC[C@H](C)[C@H]1C(=O)N(C)[C@@H]([C@@H](C)CC)C(=O)NCC(=O)N(C)[C@@H](C(C)C)C(=O)N[C@@H](Cc2ccc(OC)cc2)C(=O)O[C@H](C)C(=O)N2CCCC[C@H]2C(=O)N(C)[C@@H](C(C)C)C(=O)N[C@@H](C(C)C)C(=O)N(C)[C@H](CN(C)C(C=O)CCCC(=O)OC(C)(C)C)C(=O)N1C (some centres undefined) | 114 | 6.8 | 4.2 | 8.2 | – | – | – | –
20 | CC[C@H](C)[C@H]1C(=O)NCC(=O)N(C)[C@@H](C(C)C)C(=O)N[C@@H](Cc2ccc(OC)cc2)C(=O)O[C@@H](C)C(=O)N2CCCC[C@H]2C(=O)N(C)[C@@H](C(C)C)C(=O)N[C@@H](C(C)C)C(=O)N(C)[C@@H](CC(=O)OC(C)(C)C)C(=O)N(C)[C@@H]([C@@H](C)CC)C(=O)N1C (cyclo(G[NMeV]Y(Me)[Lac][Pip][NMeV]V[NMeD](OtBu)[NMeI][NMeI])) | 333 | 5.4 | 66 | 7 | 196 | 3.6 | – | –
